Measurements as given in patent US11603349B2, “Anti-fibrotic compounds” (Certa Therapeutics Pty Ltd, priority 2017, dated 2023).
Where a name gives a salt, the structure may show the parent alone.

Columns and labels:
[1] = system: TGF-β induced [14C]-proline incorporation in rat mesangial cells; assay: [14C]-proline incorporation assay (collagen biosynthesis); format: cell-based; conditions: inhibition of TGF-β1 (1 ng/ml) induced [14C]-proline incorporation, IRMC cells
[2] = MTS tetrazolium reduction cell viability assay; conditions: rat, rat mesangial cells (1097/IRMC cells), TGF-β1 stimulated, CC50 (μM), vs 1% DMSO vehicle
[3] = Rattus norvegicus, Mesangial cell, 44 h

| SMILES | IC50 [1, 3] [µM] | CC50 at 48 h [2] [µM] | IC50 ([1]; 44 hours) [µM] |
| --- | --- | --- | --- |
| C#CCOc1ccc(/C=C/C(=O)Nc2ccccc2C(=O)NCCc2ccncc2)cc1OC [Example 46, (E)-2-(3-(3-methoxy-4-(prop-2-yn-1-yloxy)phenyl)acrylamido)-N-(2-(pyridin-4-yl)ethyl)benzamide] | 46.6 | 186 |  |
| COc1ccc(/C=C/C(=O)Nc2ccccc2C(=O)O)cc1OCCc1ccncc1 [Example 65, (E)-2-(3-(4-methoxy-3-(2-(pyridin-4-yl)ethoxy)phenyl)acrylamido)benzoic acid] | 18.3 | 152 |  |
| C#CCOc1ccc(/C=C/C(=O)Nc2ccccc2C(=O)Nc2nn[nH]n2)cc1OC [Example 31, (E)-2-(3-(3-methoxy-4-(prop-2-yn-1-yloxy)phenyl)acrylamido)-N-(2H-tetrazol-5-yl)benzamide] | 13.9 | > 300 |  |
| COc1cc(/C=C/C(=O)Nc2ccccc2C(=O)O)ccc1OCCc1ccccn1 [Example 56, (E)-2-(3-(3-methoxy-4-(2-(pyridin-2-yl)ethoxy)phenyl)acrylamido)benzoic acid] | 32.2 | 150 |  |
| COc1ccc(/C=C/C(=O)Nc2ccccc2C(=O)O)cc1CC1CC1 [Example 106, (E)-2-(3-(3-(cyclopropylmethyl)-4-methoxyphenyl)acrylamido)benzoic acid] | 1.58 | 25.1 |  |
| COc1cc(/C=C/C(=O)Nc2ccccc2C(=O)O)ccc1OC1CCN(C)C1 (centres unmarked) [Example 51, (E)-2-(3-(3-methoxy-4-((1-methylpyrrolidin-3-yl)oxy)phenyl)acrylamido)benzoic acid] | 15.5 | > 300 |  |
| COc1cc(/C=C/C(=O)Nc2ccccc2F)ccc1OC1CCN(C)C1 (centres unmarked) [Example 130, (E)-N-(2-fluorophenyl)-3-(3-methoxy-4-((1-methylpyrrolidin-3-yl)oxy)phenyl)acrylamide] | 15.6 | 51.8 |  |
| CN1C(=O)COc2ccc(/C=C/C(=O)Nc3ccccc3C(=O)O)cc21 [Example 112, (E)-2-(3-(4-methyl-3-oxo-3,4-dihydro-2H-benzo[b][1,4]oxazin-6-yl)acrylamido)benzoic acid] | 13 | > 300 |  |
| C#CCOc1ccc(/C=C/C(=O)Nc2ccccc2C(=O)Nc2ccn(C)n2)cc1OC [Example 48, (E)-2-(3-(3-methoxy-4-(prop-2-yn-1-yloxy)phenyl)acrylamido)-N-(1-methyl-1H-pyrazol-3-yl)benzamide] | 23.9 | 309 |  |
| COc1ccc(/C=C/C(=O)Nc2ccccc2Cl)cc1OCc1cnn(C)c1 [Example 159, (E)-N-(2-chlorophenyl)-3-(4-methoxy-3-((1-methyl-1H-pyrazol-4-yl)methoxy)phenyl)acrylamide] | 2.43 | > 10 |  |
| COc1ccc(/C=C/C(=O)Nc2cccc(C#N)c2)c(OCCN(C)C)c1 [Example 93, (E)-N-(3-cyanophenyl)-3-(2-(2-(dimethylamino)ethoxy)-4-methoxyphenyl)acrylamide] | 5.23 | 17.2 |  |
| C#CCOc1ccc(/C=C/C(=O)Nc2ccccc2C(=O)NS(C)(=O)=O)cc1OC [Example 27, (E)-2-(3-(3-methoxy-4-(prop-2-yn-1-yloxy)phenyl)acrylamido)-N-(methylsulfonyl)benzamide] | 21.4 | 120 |  |
| C#CCOc1ccc(/C=C/C(=O)Nc2ccccc2C(=O)NCCCN(C)C)cc1OC [Example 32, (E)-N-(3-(dimethylamino)propyl)-2-(3-(3-methoxy-4-(prop-2-yn-1-yloxy)phenyl)acrylamido) benzamide] | 27.4 | 32 |  |
| C#CCOc1ccc(C2CC2C(=O)n2nc(O)c3ccccc32)cc1OC (centres unmarked) [Example 134, (3-hydroxy-1H-indazol-1-yl)(2-(3-methoxy-4-(prop-2-yn-1-yloxy)phenyl)cyclopropyl)methanone] | 17.5 | > 300 |  |
| C#CCOc1ccc(/C=C/C(=O)Nc2ccccc2C(=O)O)cc1OC [FT011, (E)-2-(3-(3-methoxy-4-(prop-2-yn-1-yloxy)phenyl)acrylamido)benzoic acid, reference compound] | 17 | 119 | 16 |
| C#CCOc1ccc(/C=C/C(=O)Nc2ccccc2C(=O)NCCN2CCN(C)CC2)cc1OC [Example 34, (E)-2-(3-(3-methoxy-4-(prop-2-yn-1-yloxy)phenyl)acrylamido)-N-(2-(4-methylpiperazin-1-yl)ethyl)benzamide] | 28.4 | 37.3 |  |
| C#CCOc1ccc(/C=C/C(=O)Nc2ccccc2C(=O)O)c(OCCCN(C)C)c1OC [Example 86, 2-[[(E)-3-[2-[3-(dimethylamino)propoxy]-3-methoxy-4-prop-2-ynoxy-phenyl]prop-2-enoyl]amino]benzoic acid] | 24.9 | > 300 |  |
| COc1ccc(/C=C/C(=O)Nc2ccccc2C(=O)O)cc1OCc1cccnc1 [Example 63, (E)-2-(3-(4-methoxy-3-(pyridin-3-ylmethoxy)phenyl)acrylamido)benzoic acid] | 18.2 | 79.4 |  |

| SMILES | IC50 [1, 3] [µM] | CC50 at 48 h [2] [µM] | IC50 ([1]; 44 hours) [µM] |
| --- | --- | --- | --- |
| CN1C(=O)COc2cc(/C=C/C(=O)Nc3ccccc3C(=O)O)ccc21 [Example 109, (E)-2-(3-(4-methyl-3-oxo-3,4-dihydro-2H-benzo[b][1,4]oxazin-7-yl)acrylamido)benzoic Acid] | 24.3 | > 300 |  |
| CCc1cc(/C=C/C(=O)Nc2ccccc2C(=O)O)ccc1OC [Example 105, (E)-2-(3-(3-ethyl-4-methoxyphenyl)acrylamido)benzoic acid] | 8.44 | 79.7 |  |
| COc1ccc(/C=C/C(=O)Nc2ccccc2C(=O)O)cc1OCc1ccnn1C [Example 67, (E)-2-(3-(4-methoxy-3-((1-methyl-1H-pyrazol-5-yl)methoxy)phenyl)acrylamido)benzoic acid] | 23.5 | 144 |  |
| COc1ccc(/C=C/C(=O)Nc2ccc(F)cc2)c(OCCN(C)C)c1OC [Example 128, (E)-3-(2-(2-(dimethylamino)ethoxy)-3,4-dimethoxyphenyl)-N-(4-fluorophenyl)acrylamide trifluoroacetic acid salt] | 11.5 | 24.4 |  |
| C#CCOc1ccc(/C=C/C(=O)Nc2ccccc2C(=O)NCc2ccncc2)cc1OC [Example 45, (E)-2-(3-(3-methoxy-4-(prop-2-yn-1-yloxy)phenyl)acrylamido)-N-(pyridin-4-ylmethyl)benzamide] | 12.9 | 307 |  |
| COc1cc(/C=C/C(=O)Nc2ccc(C#N)cc2)ccc1OC1CCN(C)C1 (centres unmarked) [Example 131, (E)-N-(4-cyanophenyl)-3-(3-methoxy-4-((1-methylpyrrolidin-3-yl)oxy)phenyl)acrylamide trifluoroacetic acid salt] | 21.6 | 17.7 |  |
| C#CCOc1ccc(/C=C/C(=O)Nc2ccccc2C(=O)NCCOC)cc1OC [Example 33, (E)-2-(3-(3-methoxy-4-(prop-2-yn-1-yloxy)phenyl)acrylamido)-N-(2-methoxyethyl)benzamide] | 29.2 | 199 |  |
| C#CCOc1ccc(/C=C/C(=O)Nc2ccccc2F)cc1OC [Example 1, (E)-N-(2-fluorophenyl)-3-(3-methoxy-4-(prop-2-yn-1-yloxy)phenyl)acrylamide] | 10.9 | > 300 |  |
| C#CCOc1ccc(/C=C/C(=O)Nc2ccccc2-c2noc(C)n2)cc1OC [Example 18, (E)-3-(3-methoxy-4-(prop-2-yn-1-yloxy)phenyl)-N-(2-(5-methyl-1,2,4-oxadiazol-3-yl)phenyl)-acrylamide] | 17.2 | 151 |  |
| COCCOc1cc(/C=C/C(=O)Nc2ccccc2C(=O)O)ccc1OC [Example 61, (E)-2-(3-(4-methoxy-3-(2-methoxyethoxy)phenyl)acrylamido)benzoic acid] | 48.9 | 276 |  |
| C#CCOc1ccc(/C=C/C(=O)Nc2ccccc2C)cc1OC [Example 5, (E)-3-(3-methoxy-4-(prop-2-yn-1-yloxy)phenyl)-N-(o-tolyl)acrylamide] | 10.6 | 369 |  |
| C#CCOc1ccc(/C=C/C(=O)Nc2ccccc2-c2n[nH]c(C)n2)cc1OC [Example 2, (E)-3-(3-methoxy-4-(prop-2-yn-1-yloxy)phenyl)-N-(2-(5-methyl-1H-1,2,4-triazol-3-yl)phenyl)acrylamide] | 10.4 | > 300 |  |
| COc1cc(/C=C/C(=O)Nc2ccccc2C(=O)O)ccc1N1CCN(C)CC1 [Example 97, (E)-2-(3-(3-methoxy-4-(4-methylpiperazin-1-yl)phenyl)acrylamido)benzoic acid] | 46.2 | > 300 |  |
| C#CCOc1ccc(/C=C/C(=O)N2CCNc3ccccc32)cc1OC [Example 11, (E)-1-(3,4-dihydroquinoxalin-1(2H)-yl)-3-(3-methoxy-4-(prop-2-yn-1-yloxy)phenyl)prop-2-en-1-one] | 7.07 | 104 |  |
| C#CCOc1ccc(/C=C/C(=O)Nc2ccccc2C(=O)O)c(OCCN2CCOCC2)c1OC [Example 84, 2-[[(E)-3-[3-methoxy-2-(2-morpholinoethoxy)-4-prop-2-ynoxy-phenyl]prop-2-enoyl]amino]benzoic acid] | 14.7 | > 300 |  |
| C#CCOc1ccc(/C=C/C(=O)Nc2ccccc2F)cc1CC [Example 123, (E)-3-(3-ethyl-4-(prop-2-yn-1-yloxy)phenyl)-N-(2-fluorophenyl)acrylamide] | 19.3 | > 300 |  |
| C#CCOc1ccc(/C=C/C(=O)N2CCC(O)c3ccccc32)cc1OC (centres unmarked) [Example 14, (E)-1-(4-hydroxy-3,4-dihydroquinolin-1(2H)-yl)-3-(3-methoxy-4-(prop-2-yn-1-yloxy)phenyl)prop-2-en-1-one] | 10.4 | 48.9 |  |
